Source: patent US20170190705A1, “Compositions and Methods for Inhibiting BMP” (THE BRIGHAM AND WOMAN'S HOSPITAL, INC., priority 2014, published 2017)

Legend:
[1] = molecular target: T1, caALK2 (Homo sapiens, UniProt Q04771, Q207D); experiment: Luciferase reporter assay constitutively active ALK2; type: cell-based
T1 construct: expressed in transfected cells; host or cells: C2C12 BRE-Luc cells infected with adenovirus (MOI 100)
Procedure: The cells were incubated for 1 h (37° C. and 10% CO2) and allowed to settle and attach. Compounds of interest or DMSO were diluted in DMEM and added at final compound concentrations of 1 nM to 10 μM. Cells were then incubated for 30 min. Adenovirus expressing constitutively active BMP and TGF-β type I receptors (Ad.caALK1-5), generously provided by Dr. Akiko Hata (University of to California at San Francisco), were added to achieve a multiplicity of infection (MOI) of 100. Plates were incubated overnight at 37° C. Cell viability was assayed with an MIT (3-(4,5-dimethylthiazol-2-yl)-2,5-diphenyl tetrazolium bromide) colorimetric assay (Promega) per the manufacturer's instructions. Media was discarded, and firefly luciferase activity was measured (Promega) according to manufacturer's protocol. Light output was measured using a Spectramax L luminometer (Molecular Devices) with an integration time of one second per well. Data was normalized to 100% of incremental BRE-Luc activity due to adenoviruses specifying caALK1, 2, or 3, or the incremental CAGA-Luc activity due to adenoviruses specifying caALK4 or 5.

[2] = molecular target: HCK (Homo sapiens, UniProt P08631); experiment: Kinome profiling HCK; type: biochemical; settings: read-out: Inhibitory activity HCK; for inhibition at 0.1 µM: 100 nM
Sequence of HCK (P08631 whole entry): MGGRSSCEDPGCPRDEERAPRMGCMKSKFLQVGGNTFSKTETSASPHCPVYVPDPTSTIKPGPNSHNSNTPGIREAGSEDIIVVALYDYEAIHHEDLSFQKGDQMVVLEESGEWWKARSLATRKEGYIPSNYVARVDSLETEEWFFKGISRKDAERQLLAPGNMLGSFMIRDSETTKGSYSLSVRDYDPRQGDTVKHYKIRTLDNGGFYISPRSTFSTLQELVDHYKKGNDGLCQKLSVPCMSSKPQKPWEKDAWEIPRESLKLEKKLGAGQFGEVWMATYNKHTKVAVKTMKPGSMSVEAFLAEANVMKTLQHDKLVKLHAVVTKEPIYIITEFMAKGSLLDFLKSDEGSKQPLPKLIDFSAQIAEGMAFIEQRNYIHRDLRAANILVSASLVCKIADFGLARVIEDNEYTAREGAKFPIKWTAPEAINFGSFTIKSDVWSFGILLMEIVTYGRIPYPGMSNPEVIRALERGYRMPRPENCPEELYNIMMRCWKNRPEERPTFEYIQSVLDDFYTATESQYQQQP
Procedure: (§1) . The kinome-wide selectivity was determined following the methods previously reported by Mohedas et al., ACS Chem Biol 2013, 8, 1291-1302 and Sanvitale et al., PLoS One 2013, 8, e62721.

[3] = molecular target: P38β (Homo sapiens, UniProt Q15759); experiment: Kinome profiling P38β; type: biochemical; settings: read-out: Inhibitory activity P38β; for inhibition at 0.1 µM: 100 nM
Sequence of P38β (Q15759 whole entry): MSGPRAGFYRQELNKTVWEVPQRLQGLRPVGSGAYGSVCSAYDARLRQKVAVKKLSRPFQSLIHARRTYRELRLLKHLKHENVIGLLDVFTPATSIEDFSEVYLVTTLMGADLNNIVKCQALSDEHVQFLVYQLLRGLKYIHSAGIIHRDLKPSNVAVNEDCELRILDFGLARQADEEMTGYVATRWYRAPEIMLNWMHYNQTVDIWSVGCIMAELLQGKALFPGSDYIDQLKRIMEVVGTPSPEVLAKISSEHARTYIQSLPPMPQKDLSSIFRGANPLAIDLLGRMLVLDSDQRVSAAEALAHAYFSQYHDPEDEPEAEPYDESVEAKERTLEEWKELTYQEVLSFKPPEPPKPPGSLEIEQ
Procedure: as §1

[4] = molecular target: CK1-γ2 (Homo sapiens, UniProt P78368); experiment: Kinome profiling CK1-γ2; type: biochemical; settings: read-out: Inhibitory activity CK1-γ2; for inhibition at 0.1 µM: 100 nM
Sequence of CK1-γ2 (P78368 whole entry): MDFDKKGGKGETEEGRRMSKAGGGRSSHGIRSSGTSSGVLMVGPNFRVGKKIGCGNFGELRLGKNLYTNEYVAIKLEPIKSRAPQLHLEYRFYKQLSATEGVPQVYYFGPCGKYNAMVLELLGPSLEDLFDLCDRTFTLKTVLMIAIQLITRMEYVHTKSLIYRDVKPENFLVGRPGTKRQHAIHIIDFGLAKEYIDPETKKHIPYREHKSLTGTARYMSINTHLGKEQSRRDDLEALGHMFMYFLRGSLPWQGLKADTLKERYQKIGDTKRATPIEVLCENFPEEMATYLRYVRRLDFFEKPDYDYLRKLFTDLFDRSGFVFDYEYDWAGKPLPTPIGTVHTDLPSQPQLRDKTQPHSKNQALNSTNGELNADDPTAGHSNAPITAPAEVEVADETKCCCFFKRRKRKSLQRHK
Procedure: as §1

[5] = molecular target: T2, IKK-β (Homo sapiens, UniProt O14920); experiment: Kinome profiling IKK-β; type: biochemical; settings: read-out: Inhibitory activity IKK-β; for inhibition at 0.1 µM: 100 nM
T2 sequence (O14920 1-756): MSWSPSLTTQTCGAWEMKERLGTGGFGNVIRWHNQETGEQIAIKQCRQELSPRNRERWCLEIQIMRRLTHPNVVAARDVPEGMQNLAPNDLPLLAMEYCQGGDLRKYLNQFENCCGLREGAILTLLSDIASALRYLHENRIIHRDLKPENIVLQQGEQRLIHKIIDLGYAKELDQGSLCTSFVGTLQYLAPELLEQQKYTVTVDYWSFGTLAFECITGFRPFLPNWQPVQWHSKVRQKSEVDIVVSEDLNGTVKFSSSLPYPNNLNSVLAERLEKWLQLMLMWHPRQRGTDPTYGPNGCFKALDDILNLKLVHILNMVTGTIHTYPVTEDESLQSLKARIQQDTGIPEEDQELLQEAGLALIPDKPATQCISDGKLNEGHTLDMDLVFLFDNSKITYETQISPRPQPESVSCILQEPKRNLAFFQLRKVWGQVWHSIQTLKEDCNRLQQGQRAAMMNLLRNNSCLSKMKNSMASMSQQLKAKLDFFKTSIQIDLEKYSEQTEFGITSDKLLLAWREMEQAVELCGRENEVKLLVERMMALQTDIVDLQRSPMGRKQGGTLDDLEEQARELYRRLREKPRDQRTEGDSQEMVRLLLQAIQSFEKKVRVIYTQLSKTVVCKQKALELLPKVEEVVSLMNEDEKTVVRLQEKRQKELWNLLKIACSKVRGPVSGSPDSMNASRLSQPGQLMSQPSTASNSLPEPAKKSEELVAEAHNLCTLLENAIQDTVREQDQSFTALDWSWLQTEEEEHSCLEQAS
Procedure: as §1

[6] = molecular target: AKT1 (Homo sapiens, UniProt P31749); experiment: Kinome profiling AKT1; type: biochemical; settings: read-out: Inhibitory activity AKT1; for inhibition at 0.1 µM: 100 nM
Sequence of AKT1 (P31749 whole entry): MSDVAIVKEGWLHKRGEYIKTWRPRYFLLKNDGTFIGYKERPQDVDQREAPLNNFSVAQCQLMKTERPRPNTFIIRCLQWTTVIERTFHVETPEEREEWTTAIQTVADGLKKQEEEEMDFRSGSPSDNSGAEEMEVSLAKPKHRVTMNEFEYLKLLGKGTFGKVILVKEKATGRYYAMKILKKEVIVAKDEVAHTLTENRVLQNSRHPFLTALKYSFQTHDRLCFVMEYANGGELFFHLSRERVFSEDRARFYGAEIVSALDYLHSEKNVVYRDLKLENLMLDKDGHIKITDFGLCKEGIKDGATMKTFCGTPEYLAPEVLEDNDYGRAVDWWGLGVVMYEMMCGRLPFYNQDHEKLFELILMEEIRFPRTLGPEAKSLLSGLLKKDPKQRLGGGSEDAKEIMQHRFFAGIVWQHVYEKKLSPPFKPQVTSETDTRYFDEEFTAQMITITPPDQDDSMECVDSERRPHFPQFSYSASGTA
Procedure: as §1

[7] = molecular target: T3, PRAK (Homo sapiens, UniProt Q8IW41); experiment: Kinome profiling PRAK; type: biochemical; settings: read-out: Inhibitory activity PRAK; for inhibition at 0.1 µM: 100 nM
T3 sequence (Q8IW41 1-473): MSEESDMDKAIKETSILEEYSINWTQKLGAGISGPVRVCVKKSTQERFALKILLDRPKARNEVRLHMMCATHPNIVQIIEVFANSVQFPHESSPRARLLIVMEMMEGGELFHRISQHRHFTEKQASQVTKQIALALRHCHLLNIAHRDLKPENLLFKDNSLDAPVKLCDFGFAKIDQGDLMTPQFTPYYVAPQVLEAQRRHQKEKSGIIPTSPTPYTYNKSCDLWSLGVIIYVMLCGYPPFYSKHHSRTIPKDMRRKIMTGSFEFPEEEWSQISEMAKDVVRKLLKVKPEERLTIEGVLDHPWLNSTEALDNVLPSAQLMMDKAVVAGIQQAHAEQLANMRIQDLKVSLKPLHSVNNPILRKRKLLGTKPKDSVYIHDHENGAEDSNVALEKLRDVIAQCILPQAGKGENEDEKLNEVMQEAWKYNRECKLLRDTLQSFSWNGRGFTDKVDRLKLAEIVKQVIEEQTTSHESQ
Procedure: as §1

[8] = molecular target: T4, P38δ (Homo sapiens, UniProt O15264); experiment: Kinome profiling P38δ; type: biochemical; settings: read-out: Inhibitory activity P38δ; for inhibition at 0.1 µM: 100 nM
T4 sequence (O15264 1-365): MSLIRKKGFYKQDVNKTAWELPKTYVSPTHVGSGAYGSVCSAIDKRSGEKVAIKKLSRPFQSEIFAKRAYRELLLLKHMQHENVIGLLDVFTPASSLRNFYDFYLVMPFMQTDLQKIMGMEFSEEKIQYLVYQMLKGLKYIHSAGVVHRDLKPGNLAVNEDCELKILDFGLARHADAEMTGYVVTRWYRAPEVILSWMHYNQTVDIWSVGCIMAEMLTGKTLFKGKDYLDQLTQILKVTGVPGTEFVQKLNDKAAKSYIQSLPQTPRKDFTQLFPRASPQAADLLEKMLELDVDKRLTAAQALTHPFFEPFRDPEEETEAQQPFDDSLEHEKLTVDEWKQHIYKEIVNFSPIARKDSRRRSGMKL
Procedure: as §1

[9] = molecular target: SYK (Homo sapiens, UniProt P43405); experiment: Kinome profiling SYK; type: biochemical; settings: read-out: Inhibitory activity SYK; for inhibition at 0.1 µM: 100 nM
Procedure: as §1

T1 sequence (Q04771 21-509 Q207D): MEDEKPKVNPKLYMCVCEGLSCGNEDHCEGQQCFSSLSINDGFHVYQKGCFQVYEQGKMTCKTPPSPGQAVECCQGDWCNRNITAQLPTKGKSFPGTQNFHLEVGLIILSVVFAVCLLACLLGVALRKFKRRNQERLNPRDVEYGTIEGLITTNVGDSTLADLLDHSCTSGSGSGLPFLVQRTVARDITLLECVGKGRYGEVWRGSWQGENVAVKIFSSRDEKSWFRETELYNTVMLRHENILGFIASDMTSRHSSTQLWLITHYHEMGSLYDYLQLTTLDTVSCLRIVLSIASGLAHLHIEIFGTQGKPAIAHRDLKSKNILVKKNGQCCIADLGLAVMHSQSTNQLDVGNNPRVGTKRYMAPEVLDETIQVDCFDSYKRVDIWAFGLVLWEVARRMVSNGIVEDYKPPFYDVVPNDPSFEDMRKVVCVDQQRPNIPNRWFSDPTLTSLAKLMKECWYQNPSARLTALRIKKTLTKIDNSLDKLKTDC

Row | SMILES | potency ([1]; comparison across multiple assays (Tables 6 and 7)) | inhibition at 0.1 µM [2] [%] | inhibition at 1 µM [2] [%] | inhibition at 0.1 µM [3] [%] | inhibition at 1 µM [3] [%] | inhibition at 0.1 µM [4] [%] | inhibition at 1 µM [4] [%] | inhibition at 0.1 µM [5] [%] | inhibition at 1 µM [5] [%] | inhibition at 0.1 µM [6] [%] | inhibition at 1 µM [6] [%] | inhibition at 0.1 µM [7] [%] | inhibition at 1 µM [7] [%] | inhibition at 0.1 µM [8] [%] | inhibition at 1 µM [8] [%] | inhibition at 0.1 µM [9] [%] | inhibition at 1 µM [9] [%] | IC50 ([1]; read-out: Cell Based Assay caALK2 IC50) [nM]
1 | COc1cc(-c2cc(-c3ccc(N4CCNCC4)cc3)cnc2C)cc(OC)c1OC [Compound 10, 1-(4-(6-methyl-5-(3,4,5-trimethoxyphenyl)pyridin-3-yl)phenyl)piperazine] | reduction in potency | 3 | 15 | 1 | 11 | 1 | 4 | 2 | 2 | 0 | 0 | 0 | 3 | 1 | -1 | 0 | -1 | –
2 | COc1cc(-c2cc(-c3ccc(N4CCNCC4)cc3)cnc2N)cc(OC)c1OC [Compound 15, 5-(4-(piperazin-1-yl)phenyl)-3-(3,4,5-trimethoxyphenyl)pyridin-2-amine] | – | 41 | 81 | 10 | 44 | 3 | 12 | 1 | 3 | 0 | 2 | 1 | 1 | 2 | 1 | 1 | -4 | 5
